Data published in US20250032581A1, “COMPOSITIONS AND ARTICLES COMPRISING AN ADNF POLYPEPTIDE” (RAMOT AT TEL-AVIV UNIVERSITY LTD., priority 2021, published 2025).

Experiments:
Type in all cases: cell-based, mouse
[1] = tested on: Tau-MT interaction in differentiated N1E-115 cells; assay: Fluorescence recovery after photobleaching (FRAP) of mCherry-Tau; settings: zinc 400 μM, 1 h; peptide 10^−12M
Experimental: (§1) Cell culture—Mouse neuroblastoma NIE-115 cells were maintained in Dulbecco's modified Eagle's medium, 10% fetal bovine serum, 2 mM glutamine and 100 U ml-1 penicillin, 100 mg ml-1 streptomycin (Biological Industries, Beit Haemek, Israel). The cells were incubated in 9 5% air/5% CO2 in a humidified incubator at 37° C.
(§2) Cell differentiation and co-transfection of overexpression plasmids—Cultured NIE-115 cells were plated on 35 mm dishes (81156, 60 p-Dish, Ibidi, Martinsried, Germany) at a concentration of 1.25×10^4 cells per dish and then were differentiated with reduced fetal bovine serum (2%) and DMSO (1.25%) containing medium for 5 days before transfection. 48 hrs before experiments N1E-115 cells were co-transfected with 1 μg EB3-RFP or mCherry-Tau (3R) plasmid with or without 2 μg of plasmids, coding to GFP conjugated to full-length human ADNP, or ADNP carried mutations. 1:3 ratios between total amount of transfected DNA and transfection reagent were used according to manufacture guidance (Lipofectamine2000, Thermo Fisher Scientific, Waltham, MA, USA) in all subsequent experiments.
Fluorescence recovery after photobleaching (FRAP)—Differentiated NIE-115 cells were transfected with mCherry-Tau with or without GFP-conjugated to full-length ADNP or mutated ADNP, and imaged 48 hrs after transfection. An ROI for photobleaching was drowned in the proximal cell branches. mCherry-Tau was bleached with a […], and fluorescence recovery was collected within wavelengths of 610-650 nm. 80 images were taken every 0.74 sec immediately after bleaching. After FRAP imaging all samples were also treated with NAP in final concentrations of 10^−12M, and after 4 hrs time-lapse imaging was done again under the same conditions. FRAP imaging for assessment difference between NAP and SKIP (SEQ ID NO: 21) activity was performed after an hour of ZnCl2 treatment (400 μM final concentration; Sigma, Rehovot, Israel) with or without NAP/SKIP (10^−12M final concentration). Fluorescence signals were quantified with Fiji, obtained data were normalized with easyFRAP [82, 83] and FRAP recovery curves were fitted by a one-phase exponential association function by GraphPad Prism6 (GraphPad Software, Inc., La Jolla, CA, USA) while samples with R^2<0.9 were excluded.
Next, the effect of full-length/truncated ADNP forms with or without NAP treatment on Tau-MT interaction was examined by fluorescence recovery after photobleaching (FRAP) (FIGS. 8A-C). FRAP was performed with mCherry-tagged Tau protein (FIG. 8A). […] Therefore, the immobile mCherry-Tau fraction reflects the rate of Tau association with MTs.

Tau, tubulin = assay: Polymerized vs. soluble tubulin assay; settings: zinc 400 μM, 4 h, peptide 10^−12M
Experimental: Polymerized vs. soluble tubulin assay—To quantify tubulin polymerization and Tau-MT association, a simple assay was performed as previously described. The cells grown to confluence in six-well plates were washed with MT buffer (80 mM PIPES pH 6.8, 1 mM MgCl^2, 2 mM EGTA, 5% Glycerol) and lysed at room temperature for 5 min through centrifugation (300 g), with 150 μl of MT buffer with 0.5% Triton X-100 to extract soluble (cytosolic) tubulin (S). The pelleted cells were rinsed once again with an equal volume of modified RIPA lysis buffer (50 mM Tris-HCL pH 7.4, 150 mM NaCl, 2 mM EGTA, 1% Triton X-100, 0. 1% SDS, 0.1% sodium Deoxycholate) to collect the polymerized (cytoskeletal) tubulin (P). The cytosolic and cytoskeletal fractions were each mixed with sample buffer and heated at 95° C. for 5 min. An equal volume of each fraction was analyzed by immunoblotting with Tau, tubulin and actin antibodies, and the results following ECL development were quantified by densitometry (GelQuant.NET software provided by biochemlabsolutions(dot)com).
It is known that in the presence of extracellular zinc NAP protects MT against degradation by promoting Tau binding to the MT shaft. Polymerized vs. soluble tubulin assay was effected to compare protective activities of NAP and SKIP against MT degradation and Tau-MT dissociation (FIGS. 11F-G). After treatments with zinc (400 μM, 4 h) with and without NAP or SKIP (10^−12M, 4 h) the cellular-tubulin pool was separated into polymerized and soluble tubulin fractions. The amount of Tau, tubulin, and actin was identified by immunoblotting (FIG. 11F), followed by densitometric quantification (FIG. 11G).

[2] = tested on: differentiated N1E-115 cells expressing RFP-tagged EB3; assay: Live imaging of EB3 comet-like structures (MT dynamics); settings: 10^−12M, 4 hrs, vs. non-treated control; no significant differences between NAP and SKIP
From the text: Plasmid construction—Protein expressing plasmids were constructed as previously described based on pEGFP-C1 backbone and express full-length ADNP or the following truncated ADNP proteins: p.Glu830synfs*83, p.Lys408Valfs*31, p.Ser404* (as before). Inserts of cDNA carrying unique mutations were obtained from mRNA extracted from patient-derived lymphoblastoid cell lines and cDNA with full-length human ADNP was obtained from a control lymphoblastoid cell line with no mutation. Protein expressions were verified by fluorescent imaging and immunoblotting analysis as before.
as §1, §2
Live Imaging—48 hrs after transfection, differentiated NIE-115 cells (expressing EB3-RFP with or without GFP-conjugated to full-length ADNP or mutated ADNP) were incubated at 37° C. with a 5% CO2/95% air mixture in a thermostatic chamber placed on the stage of a Leica TCS SP5 confocal microscope (objective 100× (PL Apo) oil immersion, NA 1.4). Time-lapse images were automatically captured 3 sec during 1 min, using the Leica LAS AF software. After imaging all samples were also treated with NAP (SEQ ID NO: 2) or SKIP (SEQ ID NO: 21) in final concentrations of 10^−12M, and after 4 hrs time-lapse imaging was done again under the same conditions. Data was collected and analyzed by Imaris software.
To evaluate the effect of ADNP truncated proteins on MT dynamics time-lapse imaging of EB3 comet-like structures formed by RFP-tagged EB3 proteins that bind to MT plus-ends was performed. Two parameters of EB3 activity were used to assess MT dynamics—track length and track speed of EB3 comets, which reflect the length of freshly growing MTs and the speed of MT assembly, respectively. Furthermore, the present inventors aimed to determine whether NAP ([…] for 4 hrs) could prevent the deleterious effect of ADNP mutations.

Substance: SKIP
- Tau immobile fraction (Tau-MT interaction) in the presence of zinc [1]: prevented zinc adverse effect
- protection against Tau dissociation from MTs (soluble Tau ratio) (Tau, tubulin): only NAP exhibited protection against Tau dissociation from MTs
- protection of polymerized tubulin against zinc (Tau, tubulin): protected against zinc-induced decay
- EB3 track length and speed [2]: increased EB3 track length and speed
